Experimental data taken from patent US7022343B2, “Controlled release of anti-arrhythmic agents” (Genzyme Corporation, priority 2000, dated 2006).
Counter-ions that a name gives are not always drawn.

What was measured:
[1] = Tissue analysis of drug content under FOCALSEAL-S gels on porcine heart; assay type: in vivo; details: lung tissue adjacent to gel-treated sites; pig, seven days
[2] = Amiodarone concentration in dog right atrium under FOCALSEAL-S hydrogels (Example 9); assay type: in vivo; details: right atrial appendage, right ventricle, left atrial appendage, left atrial free wall, distal lung
[3] = FOCALSEAL-L; FIG. 2A / FIG. 2B

concentration at 7 days [1]: ≤ 17000 ng/g
other tissue harvested showing a detectable level of amiodarone [2]: None
change in pH and modulus as concentration is increased [3]: decrease in pH and modulus
Structure (SMILES): CCCCc1oc2ccccc2c1C(=O)c1cc(I)c(OCCN(CC)CC)c(I)c1 [amiodarone, Amiodarone hydrochloride]
